Reference: PMC5365662, “A Short Double-Stapled Peptide Inhibits Respiratory Syncytial Virus Entry and Spreading” (Antimicrobial Agents and Chemotherapy, 2017)
Bridge positions count the residues as written; N and C are the ends. Square brackets hold non-standard residues; d marks the D form. Peptide text beside a SMILES is read from it. R8 = C=CCCCCCC[C@@](C)(N)C(=O)O; S5 = C=CCCC[C@](C)(N)C(=O)O

Tests used:
[1] = tested on: recombinant GFP-expressing RSV (strain A2) in A549 cells; assay type: cell-based, human respiratory syncytial virus; conditions: A549 cells, eGFP RSV, GFP-positive cells by FACS 24 h p.i.
Protocol: A549 cells were infected with a recombinant green fluorescent protein (GFP)-expressing RSV (strain A2) ([23]), and the inhibitory activity of the peptide was quantified by flow cytometry.
Each peptide was diluted 3 times by 2-fold serial dilutions. eGFP RSV virus at an MOI of 0.5 was used for the infection, and GFP-positive cells were counted by FACS analysis 24 h p.i. The GFP data were normalized to the fluorescence values observed with virus only and plotted as percent inhibition.
Serial 4-fold dilutions of inhibitors were mixed with eGFP-encoding RSV virus ([23]) with a volume of virus required to achieve approximately 50% of infection in medium containing 2% fetal calf serum. The resulting mixture was added to 24-well plates containing A549 cells. Cells were incubated for 2 h at 37°C, the medium was replaced, and cells were incubated for an additional 24 h. Cells were treated with 300 μl of trypsin for 10 min at 37°C, and the detached cells were diluted in 1 ml of culture medium. Following centrifugation at 1,700 rpm, the pellet was resuspended in 300 μl of PBS–1% fetal bovine serum (FBS) (vol/vol) and GFP-positive cells were counted by fluorescence-activated cell sorter (FACS) analysis. The GFP data were normalized to the fluorescence value observed with virus only. The resulting inhibition curves were fitted in Igor Pro as described above.

[2] = target: 5HB, a recombinant protein containing 3 HR1 domains covalently attached to 2 HR2 domains; conditions: for Kd: competition with fluorescently labeled T108 probe (2 nM), 5HB 50 nM, 10 min preincubation + 30 min room temperature, duplicates; for competition with binding of fluorescently labeled T108 to recombinant 5HB (in words): Ala-scan variants, FP
Text: The RSV HR2 region (residues 476 to 524) is a 49-amino-acid sequence that has been extensively characterized (Fig. 1). HR2 is a largely unstructured peptide in aqueous solution folding into an α-helix upon binding to trimeric HR1 coiled coils ([20]). […] We reduced HR2 (aa 483 to 516) into three short overlapping subdomains (subdomains 1 to 3) (Fig. 1). These peptides were scanned for various stapling combinations. […] Far-UV circular dichroism (CD) spectropolarimetry was used to investigate the effect of stapling on the α-helical content of the peptides. […] To assess the propensity of the stapled peptides to hinder the formation of the postfusion six-helix bundle required for viral cell entry, we used a 5-helix bundle (5HB) biochemical fluorescence polarization (FP) competition assay as previously described ([21], [22]).
The coding sequence of 5HB was designed as described previously and de novo synthesized by Genscript ([21]). The HR1 (aa 126 to 182) and HR2 (aa 476 to 524) coding sequences from wild-type RSV A2 strain F ([36]) were codon optimized for overexpression in Escherichia coli and cloned at NdeI/BamHI restriction sites of pET-15b to generate the expression plasmid for 5HB. The 5HB expression construct was transformed into Escherichia coli BL21(DE3). Cells were grown at 37°C to an optical density at 600 nm of 0.8 followed by induction with isopropyl-1-thio-β-D-galactopyranoside at a final concentration of 0.5 mM for 12 to 15 h. Cells were harvested by centrifugation, washed twice with PBS, and resuspended in 20 ml of PBS (pH 7.4), 500 mM NaCl, and 1% Triton X-100 supplemented with complete protease inhibitor. Cell suspensions were disrupted by sonication. Cell debris was removed through ultracentrifugation at 18,000 × g for 1 h at 4°C, and clarified cell lysate was mixed with 1 ml of nickel-nitrilotriacetic acid (Ni-NTA) agarose beads (Qiagen) preequilibrated with 20 ml of lysis buffer. The suspension was agitated for 1 h at 4°C and loaded onto a 5-ml polypropylene column (Qiagen). The column was washed twice with 8 ml of PBS (pH 7.4), 500 mM NaCl, 1% Triton X-100, and 100 mM imidazole. Proteins were eluted with 5 × 500 μl of a buffer containing PBS (pH 7.4), 300 mM imidazole, and 500 mM NaCl. The imidazole was removed by dialysis, and protein purity was assessed by SDS-polyacrylamide gel electrophoresis followed by Coomassie blue staining. Protein concentration was determined with the Qubit 2.0 Fluorometer (Life Technologies).
The T108 ([12]) peptide probe was synthesized by standard SPPS procedures using HCTU as a coupling reagent as described above. A 10-μl volume of recombinant 5HB protein in FP buffer (20 mM PBS [pH 7.4], 500 mM NaCl, 0.01% [vol/vol] Tween 20, and 0.05 mg/ml bovine gamma globulin) was preincubated for 10 min at room temperature with 10 μl of the appropriate concentration of the inhibitor, after which 10 μl of fluorescein isothiocyanate (FITC)-T106 was added and further incubated for 30 min at room temperature. The final concentrations of protein and probe were 50 nM and 2 nM, respectively. The fluorescence polarization assay was performed in 384-well plates using a Spectramax Paradigm (Molecular Devices), using excitation and emission wavelengths of 485 nm and 535 nm, respectively. The acquisition time was 700 ms, and the read height was 1 mm. All experiments were performed in duplicate. […] In order to ensure robust fitting for some fits, r0 was kept constant at the value measured for the free tracer in buffer.

circular dichroism = conditions: 10 mM phosphate; pH 7.5; 25 °C; 50 uM
[3] = tested on: rHRSV-mCherry in HEp-2 cells; assay: rHRSV-mCherry inhibition assay; assay type: cell-based, human respiratory syncytial virus; conditions: Table 3 (Ala scan); HEp-2 cells, rHRSV-mCherry MOI 0.2, 2-fold serial dilutions (11 dilutions), duplicate; ± SD of fit
Outline: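 HEp-2 cells infected at MOI 0.2 with rHRSV-mCherry preincubated 15–20 min with serially diluted peptide, peptide kept in 2% FBS medium for 48 h at 37°C. Replication read as mCherry fluorescence (ex 580/em 620 nm), normalized to untreated infected cells; duplicates, curves fitted.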

Q: Which “inhibition of RSV-eGFP infection (in words)” value [1] does the source give for `CC[C@H](C)[C@@H]1NC(=O)[C@H](CO)NC(=O)[C@](C)(NC(=O)[C@H](CC(=O)O)NC(=O)[C@H](Cc2ccccc2)NC(C)=O)CCCCCCC=CCCC[C@@](C)(C(=O)N[C@@H](CCCCN)C(=O)N[C@H](C(=O)N[C@@H](CC(N)=O)C(=O)N[C@@H](CCC(N)=O)C(=O)N[C@@H](CO)C(=O)N[C@@H](CC(C)C)C(=O)N[C@@H](C)C(=O)N[C@@H](Cc2ccccc2)C(=O)N[C@H](C(=O)N[C@]2(C)CCCCCCC=CCCC[C@@](C)(C(=O)N[C@@H](CC(N)=O)C(=O)N[C@H](C(=O)N[C@@H](CC(N)=O)C(=O)N[C@@H](C)C(=O)NCC(=O)N[C@@H](CCCCN)C(=O)N[C@@H](CO)C(=O)N[C@H](C(N)=O)[C@@H](C)O)C(C)C)NC(=O)[C@H](CC(C)C)NC(=O)[C@H](CC(C)C)NC(=O)[C@H](CCC(=O)O)NC(=O)[C@H](CC(=O)O)NC(=O)[C@H](CO)NC(=O)[C@H](CCCCN)NC2=O)[C@@H](C)CC)[C@@H](C)CC)NC(=O)[C@H](CC(N)=O)NC(=O)[C@H](C(C)C)NC(=O)[C@H](CCC(N)=O)NC(=O)[C@H](CO)NC1=O` [RSV-SAHBD (Z), reference compound] here?
A: potency similar to that of peptides 4bb and 4ca

Q: With `CC[C@H](C)[C@H](NC(=O)[C@H](CCCCN)NC(=O)[C@H](CCC(=O)O)NC(=O)[C@H](CC(N)=O)NC(=O)[C@@H](NC(=O)[C@H](CCC(N)=O)NC(=O)[C@H](CO)NC(=O)[C@@H](NC(=O)[C@H](CO)NC(=O)[C@H](C)NC(=O)[C@]1(C)CCCC=CCCC[C@](C)(NC(=O)[C@@H]2CCCN2C(=O)[C@H](Cc2ccccc2)NC(=O)[C@H](CCC(=O)O)NC(C)=O)C(=O)N[C@@H](CC(=O)O)C(=O)N[C@@H](CCC(=O)O)C(=O)N[C@@H](Cc2ccccc2)C(=O)N1)[C@@H](C)CC)C(C)C)C(=O)N[C@@H](CC(N)=O)C(N)=O` [Peptide 1d] (Ac-EFP[S5]DEF[S5]ASISQVNEKIN-NH2; staple 4-8) as the compound, how does the Kd [2] read?
A: 8 ± 4 µM

Q: And the helicity (circular dichroism)?
A: 34.3%

Q: What about the “inhibition of RSV-eGFP infection (in words)” value [1] of the same compound?
A: none

Q: For `CC[C@H](C)[C@@H]1NC(=O)[C@H](Cc2ccccc2)NC(=O)[C@@](C)(NC(=O)[C@H](CC(C)C)NC(=O)[C@H](CO)NC(=O)[C@H](CCC(N)=O)NC(=O)[C@H](CC(N)=O)NC(=O)[C@@H](NC(=O)[C@H](CCCCN)NC(=O)[C@H](CCC(=O)O)NC(C)=O)[C@@H](C)CC)CCCC=CCCC[C@@](C)(C(=O)N[C@@H](CO)C(=O)N[C@@H](CC(=O)O)C(=O)N[C@@]2(C)CCCC=CCCC[C@@](C)(C(=O)N[C@H](C(N)=O)C(C)C)NC(=O)[C@H](Cc3c[nH]cn3)NC(=O)[C@H](CC(C)C)NC(=O)[C@H](CC(C)C)NC2=O)NC(=O)[C@H](C)NC1=O` [Peptide R507A] (Ac-EKINQSL[S5]FIA[S5]SD[S5]LLH[S5]V-NH2; staple 8-12, 15-19), which “competition with binding of fluorescently labeled T108 to recombinant 5HB (in words)” value (from here on “competition with binding”) [2] is on record?
A: none of these variants were able to compete

Q: What about the helicity (circular dichroism) of the same compound?
A: 45%

Q: What about the EC50 [3] of the same compound?
A: 175 µM

Q: What does the source list for `CC[C@H](C)[C@H](NC(=O)[C@H](CCCCN)NC(=O)[C@]1(C)CCCC=CCCCCCC[C@@](C)(NC(=O)[C@H](CC(=O)O)NC(=O)[C@H](Cc2ccccc2)NC(=O)[C@H](CCC(=O)O)NC(=O)[C@H](CC(=O)O)NC(=O)[C@H](CO)NC(=O)[C@@H]2CCCN2C(=O)[C@H](Cc2ccccc2)NC(=O)[C@H](CCC(=O)O)NC(C)=O)C(=O)N[C@@H](CO)C(=O)N[C@@H]([C@@H](C)CC)C(=O)N[C@@H](CO)C(=O)N[C@@H](CCC(N)=O)C(=O)N[C@@H](C(C)C)C(=O)N[C@@H](CC(N)=O)C(=O)N1)C(=O)N[C@@H](CC(N)=O)C(N)=O` [Peptide 1b] (Ac-EFPSDEFD[R8]SISQVN[S5]KIN-NH2; staple 9-16)?
A: Kd [2]: 47 ± 6 µM; helicity (circular dichroism): 19.8%; inhibition of RSV-eGFP infection (in words) [1]: none

Q: What does the source list for `CC[C@H](C)[C@@H]1NC(=O)[C@H](Cc2ccccc2)NC(=O)[C@@](C)(NC(=O)[C@H](CC(C)C)NC(=O)[C@H](CO)NC(=O)[C@H](CCC(N)=O)NC(=O)[C@H](CCC(=O)O)NC(C)=O)CCCC=CCCC[C@@](C)(C(=O)N[C@@H](CO)C(=O)N[C@@H](CC(=O)O)C(=O)N[C@@H](CCC(=O)O)C(=O)N[C@@H](CC(C)C)C(=O)N[C@@H](CC(C)C)C(=O)N[C@@H](Cc2c[nH]cn2)C(=O)N[C@@H](CC(N)=O)C(=O)N[C@H](C(N)=O)C(C)C)NC(=O)[C@H](CCCNC(=N)N)NC1=O` [Peptide 3a] (Ac-EQSL[S5]FIR[S5]SDELLHNV-NH2; staple 5-9)?
A: Kd [2]: 5.8 ± 1.8 µM; helicity (circular dichroism): 33.9%; inhibition of RSV-eGFP infection (in words) [1]: none

Q: With `CC[C@H](C)[C@H](NC(=O)[C@H](CCCCN)NC(=O)[C@H](CCC(=O)O)NC(C)=O)C(=O)N[C@@]1(C)CCCC=CCCC[C@@](C)(C(=O)N[C@@H](Cc2ccccc2)C(=O)N[C@@H](C)C(=O)N[C@@]2(C)CCCC=CCCC[C@@](C)(C(=O)N[C@@H](CC(C)C)C(=O)N[C@@H](CC(C)C)C(=O)N[C@@H](Cc3c[nH]cn3)C(=O)N[C@@H](CC(N)=O)C(=O)N[C@H](C(N)=O)C(C)C)NC(=O)[C@H](CC(=O)O)NC(=O)[C@H](CO)NC(=O)[C@H](CCCCN)NC2=O)NC(=O)[C@H](CC(C)C)NC(=O)[C@H](CO)NC(=O)[C@H](CCC(N)=O)NC1=O` [Peptide I506A] (Ac-EKI[S5]QSL[S5]FA[S5]KSD[S5]LLHNV-NH2; staple 4-8, 11-15) as the compound, how does the “competition with binding” value [2] read?
A: none of these variants were able to compete

Q: What about the helicity (circular dichroism) of the same compound?
A: 22%

Q: And the EC50 [3]?
A: 10.4 ± 2.97 µM

Q: Which “competition with binding” value [2] does the source give for `CC[C@H](C)[C@H](NC(=O)[C@H](Cc1ccccc1)NC(=O)[C@]1(C)CCCC=CCCC[C@](C)(NC(=O)[C@@H](NC(=O)[C@H](CCCCN)NC(=O)[C@H](CCC(=O)O)NC(C)=O)[C@@H](C)CC)C(=O)N[C@@H](CCC(N)=O)C(=O)N[C@@H](CO)C(=O)N[C@@H](CC(C)C)C(=O)N1)C(=O)N[C@@]1(C)CCCC=CCCC[C@@](C)(C(=O)N[C@@H](CC(C)C)C(=O)N[C@@H](CC(C)C)C(=O)N[C@@H](Cc2c[nH]cn2)C(=O)N[C@@H](CC(N)=O)C(=O)N[C@H](C(N)=O)C(C)C)NC(=O)[C@H](CC(=O)O)NC(=O)[C@H](C)NC(=O)[C@H](CCCCN)NC1=O` [Peptide S509A] (Ac-EKI[S5]QSL[S5]FI[S5]KAD[S5]LLHNV-NH2; staple 4-8, 11-15) here?
A: none of these variants were able to compete

Q: What about the helicity (circular dichroism) of the same compound?
A: 62%

Q: And the EC50 [3]?
A: 82 ± 1.56 µM
